Earlier results on four compounds are cited in patent publication US20190209538A1, “Precision Controlled Load and Release Particles for Post-Operative Pain” (LIQUIDIA TECHNOLOGIES, INC., priority 2016, published 2019).

The conditions of data set [1]: in vivo.
The conditions of data set [2]: room temperature, aqueous system between pH 7.0 and pH 9.0.

As to `CCCCN1CCCCC1C(=O)Nc1c(C)cccc1C` (stereo not shown) [bupivacaine], the clearance rate in data set [1] is on record as 0.58 L/min. Regarding `CCCCN1CCCC[C@H]1C(=O)Nc1c(C)cccc1C` [levobupivacaine], the clearance rate in data set [1] is listed as 0.32 L/min. On to `CCCCN1CCCCC1C(=O)Nc1c(C)cccc1C` (stereo not shown) [bupivacaine free base, bupivacaine], for which the “solubility relative to bupivacaine HCl” value in data set [2] is recorded as “less soluble than bupivacaine HCl”. For `CCCN1CCCC[C@H]1C(=O)Nc1c(C)cccc1C` [ropivacaine], the clearance rate in data set [1] was ~0.72 L/min.
